Data: patent publication EP4755378A1, “DYRK2 INHIBITORS FOR TREATING TUMOURS WITH THE HYPERACTIVE MAPK/ERK PATHWAY” (Universidad de Córdoba, priority 2023, dated 2025)

Assays:
Type in all cases: cell-based
DYRK2 = test: Western-blot of DYRK2 protein levels in HEK-293T cells; conditions: for DYRK2 levels: HEK-293T transfected with Flag-DYRK2, inhibitor 10 µM for 24 hours, Figure 13B
A549 cells = test: XTT cell viability assay, A549 cells; conditions: A549 (mutated RAS), 48 hours, Figure 15
HCT116 cells = test: XTT cell viability assay, HCT116 cells; conditions: HCT116 (mutated RAS), 48 hours, Figure 14
HT-29 cells = test: XTT cell viability assay, HT-29 cells; conditions: HT-29 (B-RAF V600E), different doses of Dabrafenib, with or without LDN192960 10 µM, 48 hours, Figure 16
pERK1/2-T202/T204 = test: Western-blot of ERK1/2 activation loop phosphorylation in HEK-293T cells; conditions: Dabrafenib 10 µM 24 hours, EGF 50-100 ng/ml 5 minutes, Figure 13A

SMILES | DYRK2 levels (DYRK2) | cell viability (tumour survival) (A549 cells; low doses of Dabrafenib) | cell viability (A549 cells; very high doses of Dabrafenib) | cell viability (tumour survival) (HCT116 cells; low doses of Dabrafenib) | cell viability (HCT116 cells; very high doses of Dabrafenib) | cell viability (HT-29 cells) | pathway activation (pERK1/2-T202/T204) | DYRK2 stabilisation (DYRK2; HEK-293T transfected with Flag-DYRK2, Dabrafenib 10 µM 24 hours, Figure 13A)
N#CC(=C(/N)Sc1ccccc1N)/C(C#N)=C(\N)Sc1ccccc1N [U0126] | increasing DYRK2 levels |  |  |  |  |  |  | 
CC(C)(C)c1nc(-c2cccc(NS(=O)(=O)c3c(F)cccc3F)c2F)c(-c2ccnc(N)n2)s1 [Dabrafenib] | increasing DYRK2 levels | increase in tumour survival compared to the control | slightly reducing cell viability | increase in tumour survival compared to the control | slightly reducing cell viability | dose-dependent decrease in viability | reduction in pathway activation | DYRK2 stabilisation was observed
